Biological target: T1, HEK cells stably transfected with tetracycline inducible hNR1 and hNR2A (Homo sapiens, UniProt Q05586+Q12879)
T1 construct: expressed in transfected cells; host or cells: HEK cells, stably transfected, tetracycline/doxycycline inducible
Assay: Assay 1: Cell-Based Assay, cytosolic calcium response to positive allosteric modulators (with 30 μM glycine and 300 nM L-glutamate, EC30)
Settings: Table 2; for EC50: cytosolic calcium response, with 30 μM glycine and 300 nM L-glutamate (EC30), — = no plateau was reached; for Max %: responses scaled relative to 100 μM L-glutamate maximal response (100%) and 0 μM L-glutamate (0%)
Summary of the method: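 Cells induced 24 h with 7.5 μg mL^−1 doxycycline plus 500 μM (+)-ketamine, loaded 60 min at 37 °C with calcium dye in Mg-free HBSS (1.8 mM Ca, probenecid, 10 μM (+)-ketamine, pH 7.15). Peak RFU over 5 min after compound addition, scaled to 100 μM L-glutamate (100%) and 0 μM (0%); four-parameter Hill fit for EC50, max % if no plateau.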

T1 sequence (Q12879 23-1464, other chains not shown): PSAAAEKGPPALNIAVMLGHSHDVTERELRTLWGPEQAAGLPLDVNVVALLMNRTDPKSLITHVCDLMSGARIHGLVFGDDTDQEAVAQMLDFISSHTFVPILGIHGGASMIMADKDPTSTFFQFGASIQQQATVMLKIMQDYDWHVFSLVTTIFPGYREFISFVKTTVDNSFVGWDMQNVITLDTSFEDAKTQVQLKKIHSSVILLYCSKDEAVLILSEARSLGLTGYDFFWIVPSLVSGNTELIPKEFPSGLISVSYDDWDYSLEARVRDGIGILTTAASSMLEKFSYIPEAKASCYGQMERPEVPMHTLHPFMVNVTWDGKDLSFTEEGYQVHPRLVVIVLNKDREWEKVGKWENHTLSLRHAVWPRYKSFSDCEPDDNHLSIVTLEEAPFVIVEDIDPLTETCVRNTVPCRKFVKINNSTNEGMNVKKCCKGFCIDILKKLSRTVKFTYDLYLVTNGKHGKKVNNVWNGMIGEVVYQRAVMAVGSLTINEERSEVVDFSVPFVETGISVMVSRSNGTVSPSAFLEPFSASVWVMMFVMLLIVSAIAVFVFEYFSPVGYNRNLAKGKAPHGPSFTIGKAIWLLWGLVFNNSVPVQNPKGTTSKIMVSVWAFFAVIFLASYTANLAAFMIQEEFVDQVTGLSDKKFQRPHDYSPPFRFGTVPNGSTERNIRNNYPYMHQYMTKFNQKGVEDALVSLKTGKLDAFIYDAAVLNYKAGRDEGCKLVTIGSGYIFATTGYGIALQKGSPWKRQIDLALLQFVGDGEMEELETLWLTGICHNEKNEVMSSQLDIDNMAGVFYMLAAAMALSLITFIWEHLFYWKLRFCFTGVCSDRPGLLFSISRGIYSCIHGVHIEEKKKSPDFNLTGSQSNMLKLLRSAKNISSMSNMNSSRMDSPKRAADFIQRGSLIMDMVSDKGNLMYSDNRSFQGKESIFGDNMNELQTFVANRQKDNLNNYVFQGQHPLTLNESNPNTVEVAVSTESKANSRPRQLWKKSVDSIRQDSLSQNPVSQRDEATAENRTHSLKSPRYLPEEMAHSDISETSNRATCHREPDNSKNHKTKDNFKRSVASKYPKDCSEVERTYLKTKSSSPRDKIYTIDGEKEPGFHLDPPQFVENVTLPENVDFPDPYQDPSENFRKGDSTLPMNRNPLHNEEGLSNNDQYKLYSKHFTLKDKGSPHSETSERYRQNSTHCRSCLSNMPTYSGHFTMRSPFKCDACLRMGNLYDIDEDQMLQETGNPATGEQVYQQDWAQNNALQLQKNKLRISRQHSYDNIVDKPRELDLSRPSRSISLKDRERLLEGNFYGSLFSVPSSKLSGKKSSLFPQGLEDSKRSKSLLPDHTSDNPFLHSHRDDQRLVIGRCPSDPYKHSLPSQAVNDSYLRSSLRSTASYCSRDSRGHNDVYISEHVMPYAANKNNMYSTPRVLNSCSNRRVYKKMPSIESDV

| Compound | EC50 [nM] | Max % [%] |
| --- | --- | --- |
| CCN(Cc1cc(=O)n2c(CCO)c(C)sc2n1)c1ccc(F)cc1 [Example 13.4, 7-((Ethyl(4-fluorophenyl)amino)methyl)-3-(2-hydroxyethyl)-2-methyl-5H-thiazolo[3,2-a]pyrimidin-5-one] | 777 | 185 |
| CCN(Cc1cc(=O)n2c(CCOC)c(C)sc2n1)c1ccc(F)cc1 [Example 13.5, 7-[[Ethyl(4-fluorophenyl)amino]methyl]-3-(2-methoxyethyl)-2-methyl-5H-[1,3]thiazolo[3,2-a]pyrimidin-5-one] | 1000 | 152 |
| CCN(Cc1cc(=O)n2c(CCC(N)=O)c(C)sc2n1)c1ccc(F)cc1 [Example 13.6, 3-(7-[[ethyl(4-fluorophenyl)amino]methyl]-2-methyl-5-oxo-5H-[1,3]thiazolo[3,2-a]pyrimidin-3-yl)propanamide] | 1400 | 125 |
| CCN(Cc1cc(=O)n2c(CCC#N)c(C)sc2n1)c1ccc(F)cc1 [Example 13.7, 3-[7-[(N-ethyl-4-fluoro-anilino)methyl]-2-methyl-5-oxo-thiazolo[3,2-a]pyrimidin-3-yl]propanenitrile] | 547 | 137 |
| CCN(Cc1cc(=O)n2c(CCC(=O)N(C)C)c(C)sc2n1)c1ccc(F)cc1 [Example 13.8, 3-[7-[(N-ethyl-4-fluoro-anilino)methyl]-2-methyl-5-oxo-thiazolo[3,2-a]pyrimidin-3-yl]-N,N-dimethyl-propanamide] | – | 61.2 |
| CCN(Cc1cc(=O)n2c(CCC(C)(C)O)c(C)sc2n1)c1ccc(F)cc1 [Example 13.9, 7-[[Ethyl(4-fluorophenyl)amino]methyl]-3-(3-hydroxy-3-methylbutyl)-2-methyl-5H-[1,3]thiazolo[3,2-a]pyrimidin-5-one] | 5000 | 166 |
| CCN(Cc1cc(=O)n2c(C3CC3C(N)=O)c(C)sc2n1)c1ccc(F)cc1 (stereo not shown) [Example 14.1, 2-[7-[(N-ethyl-4-fluoro-anilino)methyl]-2-methyl-5-oxo-thiazolo[3,2-a]pyrimidin-3-yl]cyclopropanecarboxamide] | 2600 | 163 |
| CCN(Cc1cc(=O)n2c(C3CC3C#N)c(C)sc2n1)c1ccc(F)cc1 (stereo not shown) [Example 14.2, 2-(7-[[ethyl(4-fluorophenyl)amino]methyl]-2-methyl-5-oxo-5H-[1,3]thiazolo[3,2-a]pyrimidin-3-yl)cyclopropane-1-carbonitrile] | 122 | 205 |
| CCc1cc(C(F)(F)F)nn1Cc1cc(=O)n2c(C3CC3CO)c(C)sc2n1 (stereo not shown) [Example 15.1, 7-((5-ethyl-3-(trifluoromethyl)-1H-pyrazol-1-yl)methyl)-3-(2-(hydroxymethyl)cyclopropyl)-2-methyl-5H-thiazolo[3,2-a]pyrimidin-5-one] | 2200 | 144 |
| Cc1sc2nc(Cn3nc(C4CC4)c(F)c3C(F)(F)F)cc(=O)n2c1C1CC1CO (stereo not drawn) [Example 15.9, 7-((3-cyclopropyl-4-fluoro-5-(trifluoromethyl)-1H-pyrazol-1-yl)methyl)-3-(trans-2-(hydroxymethyl)cyclopropyl)-2-methyl-5H-thiazolo[3,2-a]pyrimidin-5-one] | 18600 | 117 |
| Cc1sc2nc(Cn3nc(C(F)(F)F)c(F)c3C3CC3)cc(=O)n2c1C1CC1CO (stereo not drawn) [Example 15.10, 7-((5-cyclopropyl-4-fluoro-3-(trifluoromethyl)-1H-pyrazol-1-yl)methyl)-3-(trans-2-(hydroxymethyl)cyclopropyl)-2-methyl-5H-thiazolo[3,2-a]pyrimidin-5-one] | 3100 | 133 |
| CC(C)c1sc2nc(Cn3nc(C(F)(F)F)cc3C3CC3)cc(=O)n2c1C1CC1CO (stereo not shown) [Example 15.24, 7-[[5-cyclopropyl-3-(trifluoromethyl)pyrazol-1-yl]methyl]-3[2-(hydroxymethyl)cyclopropyl]-2-isopropyl-thiazolo[3,2-a]pyrimidin-5-one] | 1400 | 138 |
| Cc1sc2nc(Cn3nc(C4CC4)cc3C(F)(F)F)cc(=O)n2c1-c1cncnc1 [Example 15.28, 7-((3-cyclopropyl-5-(trifluoromethyl)-1H-pyrazol-1-yl)methyl)-2-methyl-3-(pyrimidin-5-yl)-5H-thiazolo[3,2-a]pyrimidin-5-one] | – | 80.8 |
| Cc1sc2nc(Cn3nc(C(F)(F)F)cc3C3CC3)cc(=O)n2c1-c1cncnc1 [Example 15.29, 7-((5-cyclopropyl-3-(trifluoromethyl)-1H-pyrazol-1-yl)methyl)-2-methyl-3-(pyrimidin-5-yl)-5H-thiazolo[3,2-a]pyrimidin-5-one] | 7000 | 135 |
| Cc1sc2nc(Cn3nc(C(F)(F)F)cc3C(F)(F)F)cc(=O)n2c1-c1cncnc1 [Example 15.30, 7-((3,5-bis(trifluoromethyl)-1H-pyrazol-1-yl)methyl)-2-methyl-3-(pyrimidin-5-yl)-5H-thiazolo[3,2-a]pyrimidin-5-one] | 22000 | 116 |
| Cc1sc2nc(Cn3nccc3C(F)(F)F)cc(=O)n2c1-c1cncnc1 [Example 15.31, 2-methyl-3-(pyrimidin-5-yl)-7-((5-(trifluoromethyl)-1H-pyrazol-1-yl)methyl)-5H-thiazolo[3,2-a]pyrimidin-5-one] | – | 57.8 |
| Cc1sc2nc(Cn3nc(C(F)(F)F)cc3C)cc(=O)n2c1-c1cncnc1 [Example 15.32, 2-methyl-7-((5-methyl-3-(trifluoromethyl)-1H-pyrazol-1-yl)methyl)-3-(pyrimidin-5-yl)-5H-thiazolo [3,2-a]pyrimidin-5-one] | – | 94.8 |
| Cc1cn2c(=O)cc(Cn3nc(C(F)(F)F)cc3C(F)(F)F)nc2s1 [Example 15.33, 7-((3,5-bis(trifluoromethyl)-1H-pyrazol-1-yl)methyl)-2-methyl-5H-thiazolo[3,2-a]pyrimidin-5-one] | 18800 | 51.8 |
| Cc1sc2nc(Cn3ncc4ccccc43)cc(=O)n2c1-c1cncnc1 [Example 15.34, 7-((1H-indazol-1-yl)methyl)-2-methyl-3-(pyrimidin-5-yl)-5H-thiazolo[3,2-a]pyrimidin-5-one] | – | 48.2 |
| CNC(=O)c1c(C)sc2nc(Cn3nc(C(F)(F)F)cc3C3CC3)cc(=O)n12 [Example 16.1, 7-((5-cyclopropyl-3-(trifluoromethyl)-1H-pyrazol-1-yl)methyl)-N,2-dimethyl-5-oxo-5H-thiazolo[3,2-a]pyrimidine-3-carboxamide] | 2300 | 140 |
| CNC(=O)c1c(C)sc2nc(Cn3nc(C4CC4)cc3C(F)(F)F)cc(=O)n12 [Example 16.2, 7-((3-cyclopropyl-5-(trifluoromethyl)-1H-pyrazol-1-yl)methyl)-N,2-dimethyl-5-oxo-5H-thiazolo[3,2-a]pyrimidine-3-carboxamide] | 11700 | 110 |
| CCNC(=O)c1c(C(F)(F)F)sc2nc(Cn3nc(C(F)(F)F)cc3C3CC3)cc(=O)n12 [Example 16.3, 7-((5-cyclopropyl-3-(trifluoromethyl)-1H-pyrazol-1-yl)methyl)-N-ethyl-5-oxo-2-(trifluoromethyl)-5H-thiazolo[3,2-a]pyrimidine-3-carboxamide] | 1400 | 160 |
| CCNC(=O)c1c(C(F)(F)F)sc2nc(Cn3nc(C4CC4)cc3C(F)(F)F)cc(=O)n12 [Example 16.4, 7-((3-cyclopropyl-5-(trifluoromethyl)-1H-pyrazol-1-yl)methyl)-N-ethyl-5-oxo-2-(trifluoromethyl)-5H-thiazolo[3,2-a]pyrimidine-3-carboxamide] | 9200 | 130 |
| CCNC(=O)c1csc2nc(Cn3nc(C(F)(F)F)cc3C3CC3)cc(=O)n12 [Example 16.5, 7-((5-cyclopropyl-3-(trifluoromethyl)-1H-pyrazol-1-yl)methyl)-N-ethyl-5-oxo-5H-thiazolo[3,2-a]pyrimidine-3-carboxamide] | 10600 | 149 |
| CCNC(=O)c1c(C2CC2)sc2nc(Cn3nc(C(F)(F)F)cc3C3CC3)cc(=O)n12 [Example 16.6, 2-cyclopropyl-7-((5-cyclopropyl-3-(trifluoromethyl)-1H-pyrazol-1-yl)methyl)-N-ethyl-5-oxo-5H-thiazolo[3,2-a]pyrimidine-3-carboxamide] | 5500 | 140 |
| CCNC(=O)c1c(C2CC2)sc2nc(Cn3nc(C4CC4)cc3C(F)(F)F)cc(=O)n12 [Example 16.7, 2-cyclopropyl-7-((3-cyclopropyl-5-(trifluoromethyl)-1H-pyrazol-1-yl)methyl)-N-ethyl-5-oxo-5H-thiazolo[3,2-a]pyrimidine-3-carboxamide] | 36200 | 67.5 |
| Cc1sc2nc(Cn3ccc(C(F)(F)F)n3)cc(=O)n2c1C#N [Example 17.1, 2-methyl-5-oxo-7-((3-(trifluoromethyl)-1H-pyrazol-1-yl)methyl)-5H-thiazolo[3,2-a]pyrimidine-3-carbonitrile] | – | 107 |
| Cc1sc2nc(Cn3nc(C(F)(F)F)cc3C3CC3)cc(=O)n2c1C#N [Example 17.2, 7-((5-cyclopropyl-3-(trifluoromethyl)-1H-pyrazol-1-yl)methyl)-2-methyl-5-oxo-5H-thiazolo[3,2-a]pyrimidine-3-carbonitrile] | 2000 | 119 |
| Cc1sc2nc(Cn3nc(C4CC4)cc3C(F)(F)F)cc(=O)n2c1C#N [Example 17.3, 7-((3-cyclopropyl-5-(trifluoromethyl)-1H-pyrazol-1-yl)methyl)-2-methyl-5-oxo-5H-thiazolo[3,2-a]pyrimidine-3-carbonitrile] | – | 104 |
| Cc1sc2nc(Cn3ccc(C(F)(F)F)n3)cc(=O)n2c1C(C)O (stereo not shown) [Example 18.1, 3-(1-hydroxyethyl)-2-methyl-7-((3-(trifluoromethyl)-1H-pyrazol-1-yl)methyl)-5H-thiazolo[3,2-a]pyrimidin-5-one] | – | 94.8 |
